Patent US20100003754A1, “METHODS OF DIFFERENTIATING STEM CELLS” (Ossacur AG, priority 2006, published 2010)

Key:
[1] = tested on: human mesenchymal stem cells (BMMSC); assay: Cell proliferation, CellTiter 96 (MTT); assay type: cell-based; details: TGF-β1 10 ng/ml; stayed at a lower proliferation rate than the control groups
Procedure: (§1) The cells were trypsinized and then counted using trypan blue. 60×10^3 or 15×10^3 mesenchymal stem cells were seeded in a 25 cm^2 cell culture bottle or in a 12-well plate. Each vessel was charged with an appropriate amount of standard medium (control group) or a medium which contained the joint or meniscus extract (of bovine origin) in a dilute solution of 1:25 or 1:50. Recombinant TGF-β1 protein (R&D Systems) with a concentration of 10 ng/ml was used for chondrocytic differentiation of the BMMSC as positive control. Cell supernatants were collected and stored at −80° C.
Investigations on the cell proliferation were carried out using “CellTiter 96 Non-Radio-active” (Promega). This is a method based on 3-(4,5-dimethylthiazol-2-yl)-2,5-diphenyltetrazolium bromide (MTT) which determines the property of metabolically active cells of converting a tetrazolium salt. For example, the conversion of pale yellow MTT by cellular dehydrogenases into the dark blue, water-insoluble formazan is proportional to the activity of the dehydrogenases and thus to the survival rate of the cells. The absorbance is measured at a wavelength of 595 nm. The cells were counted and seeded in a density of […] in a 96-well round-bottom plate. The cell proliferation was determined on day 1, 3, 7 and 14. […] The absorbance was measured at the wavelength of 595 nm with a reference wavelength of 655 nm.

BMMSC [2] = assay: Quantification of chondroitin sulfate (Alcian blue); assay type: cell-based, human; details: parallel addition of 10 ng/ml TGF-β1
Procedure: as §1
The cells were washed with the PBS and then incubated with Alcian blue stain (1% Alcian blue in 3% strength acetic acid) for 20 minutes. The cells were decolorized by washing three times with 3% strength acetic acid and washing once with water. To quantify the stain which has been taken up, the cells were solubilized by shaking in 1% strength SDS solution at room temperature for 30 minutes and then heating at 90° C. for one hour. The absorbance was detected at the wavelength of 595 nm.

BMMSC [3] = assay: Real time RT-PCR of cartilage-specific differentiation markers (SOX9, Aggrecan); assay type: cell-based, human; details: transcription level; treatment with TGF-β1
Procedure: Total cellular ribonucleic acid (RNA) was extracted using “NucleoSpin RNA II” from Macherey-Nagel. 1 μg of the RNA was amplified using a “one-step RT-PCR kit” (ABgene, UK). Real time (RT) PCR primers specific for collagen type I, SOX9, Aggrecan and glyceraldehyde-3-phosphate dehydrogenase (GAPDH) were used. Amplification of the so-called housekeeping gene GAPDH was used to verify the quality of the RNA and ensure uniform loading of resolving gels with the samples. A real time reverse transcription PCR was carried out using a LightCycler (Roche Diagnostic). The RT-PCR conditions included an RT step of 20 minutes at 61° C. to produce single-stranded cDNA from mRNA, followed by an inactivation of reverse transcriptase and denaturation at 95° C. for 30 seconds. 40 amplification cycles of one second at 95° C., of 15 seconds at 58° C. and of 13 seconds at 72° C. were carried out. Finally, a cooling step of 30 seconds at 40° C. was carried out.

BMMSC [4] = assay: Aggrecan immunofluorescence; assay type: cell-based, human; details: day 14; recombinant TGF-β1 only
Procedure: The cells were seeded in a density of 15×10^3 in a 12-well plate. 14 days after the treatment with the extracts, the cells were washed with PBS and then fixed with ice-cold 70% strength ethanol for at least 18 hours. The cells were then blocked in 3% strength goat serum (normal goat serum NGS) for one hour, and thereafter mouse anti-Aggrecan antibodies (Chemicon) were used with a concentration of 1 μg/ml and incubated at 4° C. for at least 18 hours. The primary antibodies were then removed, the cells were washed three times with PBS and subsequently incubated with anti-mouse FITC-conjugated IgM (Molecular Probes) in a ratio of 1:1000 for one hour. The secondary antibodies were removed and the cells were washed three times with the PBS. A negative control was carried out with the secondary antibody. After the incubation, the cells were washed, put on supports and inspected using a fluorescence microscope.

With “TGF-β1: Recombinant TGF-β1 protein (R&D Systems), 10 ng/ml, positive control for chondrocytic differentiation” the cell proliferation [1] was “graduated increase”, the chondroitin sulfate (BMMSC [2]) was “increase in chondroitin sulfate” and the mRNA for aggrecan (BMMSC [3]) was “significantly increased”. The “number of aggrecan-positive cells compared with the untreated control samples” value (BMMSC [4]) was “larger numbers”.
